We go through 34 molecules from ChEMBL document CHEMBL3045542, “A quantitative structure-activity relationship study of herbicidal analogues of alpha-hydroxy-substituted 3-benzylidenepyrrolidene-2,4-diones” (2006).

What all share (type): functional
Assay [1] relates to Digitaria sanguinalis. The assay can be described thus: Herbicidal activity against Digitaria sanguinalis (hairy crabgrass) assessed as inhibition of plant growth at 375 g/ha applied as pre-emergence treatment.
Assay [2] deals with Digitaria sanguinalis. Kind of assay: Herbicidal activity against Digitaria sanguinalis (hairy crabgrass) assessed as inhibition of plant growth at 750 g/ha applied as pre-emergence treatment.
Assay [3] relates to Echinochloa crus-galli. The assay can be described thus: Herbicidal activity against Echinochloa crus-galli (barnyard grass) assessed as inhibition of plant growth at 93.75 g/ha applied as pre-emergence treatment. Particulars: for inhibition at 93.75 g/ha: Echinochloa crus-galli, pre-emergence.
The subject of assay [4] is Echinochloa crus-galli. Kind of assay: Herbicidal activity against Echinochloa crus-galli (barnyard grass) assessed as inhibition of plant growth at 187.5 g/ha applied as pre-emergence treatment. The conditions noted are these: for inhibition at 187.5 g/ha: Echinochloa crus-galli, pre-emergence.
Assay [5] relates to Echinochloa crus-galli. Kind of assay: Herbicidal activity against Echinochloa crus-galli (barnyard grass) assessed as inhibition of plant growth at 750 g/ha applied as pre-emergence treatment. The conditions noted are these: for inhibition at 750 g/ha: Echinochloa crus-galli, pre-emergence.
The subject of assay [6] is Echinochloa crus-galli. Kind of assay: Herbicidal activity against Echinochloa crus-galli (barnyard grass) assessed as inhibition of plant growth at 375 g/ha applied as pre-emergence treatment. Particulars: for inhibition at 375 g/ha: Echinochloa crus-galli, pre-emergence.
Assay [7] concerns Digitaria sanguinalis. The assay can be described thus: Herbicidal activity against Digitaria sanguinalis (hairy crabgrass) assessed as inhibition of plant growth at 187.5 g/ha applied as pre-emergence treatment.
Assay [8] has as its system Digitaria sanguinalis. The assay can be described thus: Herbicidal activity against Digitaria sanguinalis (hairy crabgrass) assessed as inhibition of plant growth at 93.75 g/ha applied as pre-emergence treatment.
Assay [9] concerns Echinochloa crus-galli. The assay can be described thus: Herbicidal activity against Echinochloa crus-galli (barnyard grass) assessed as inhibition of plant growth at 10 ug/mL by cup test.
Setting [10] is: Digitaria sanguinalis, pre-emergence.

One may read the inhibition as how much of the control response was suppressed. Regarding `CS(=O)(=O)c1ccc(C(=O)C2C(=O)CCCC2=O)c(Cl)c1` [SULCOTRIONE], the inhibition at 375 g/ha in the assay on Digitaria sanguinalis [1] (setting [10]) and in the assay on Echinochloa crus-galli [6] was 100% in each case. Further, the inhibition at 750 g/ha in the assay on Digitaria sanguinalis [2] (setting [10]) and in the assay with Echinochloa crus-galli [5] was 100% throughout. Besides, the inhibition at 93.75 g/ha in the assay with Echinochloa crus-galli [3] worked out at 70%; with Digitaria sanguinalis [8] (setting [10]) it was 100%. In addition, the inhibition at 187.5 g/ha in the assay on Echinochloa crus-galli [4] stood at 93%; with Digitaria sanguinalis [7] (setting [10]), 100%. Take `Cc1ccc(/C(O)=C2\C(=O)CN(C(C)C)C2=O)c(C)c1`: in the assay on Echinochloa crus-galli [9], the inhibition at 10 µg/mL came to 74%. For the molecule `COc1ccc(C(=O)C2=C(O)N(C(C)C)CCC2=O)c(OC)c1`, the inhibition at 10 µg/mL in the assay with Echinochloa crus-galli [9] worked out at 6%. With `COc1ccccc1/C(O)=C1\C(=O)CN(Cc2ccccc2)C1=O`, the inhibition at 10 µg/mL in the assay with Echinochloa crus-galli [9] came to 14%. For `CCC(C)N1CC(=O)/C(=C(/O)c2ccc(OC)cc2)C1=O` (stereo unspecified), the inhibition at 10 µg/mL with Echinochloa crus-galli [9] is 64%. As to `COc1ccccc1/C(O)=C1\C(=O)CN(C(C)(C)C)C1=O`, in the assay on Echinochloa crus-galli [9], the inhibition at 10 µg/mL came to 75%. On to `CC(C)N1CC(=O)/C(=C(/O)c2cccc(Oc3ccccc3)c2)C1=O`, for which the inhibition at 10 µg/mL in the assay with Echinochloa crus-galli [9] turned out to be 57%. For `CC(C)N1CC(=O)/C(=C(/O)c2ccc(OCc3ccccc3)cc2)C1=O`, the inhibition at 10 µg/mL in the assay on Echinochloa crus-galli [9] came to 39%.

Regarding `COc1ccc(/C(O)=C2\C(=O)C(C)N(C(C)C)C2=O)c(OC)c1` (stereo unspecified), the inhibition at 10 µg/mL with Echinochloa crus-galli [9] was 25%. In the case of `CCOc1ccc(/C(O)=C2\C(=O)CN(C(C)C)C2=O)c(OCC)c1`, the inhibition at 10 µg/mL with Echinochloa crus-galli [9] was 26%.

Consider `CCC(C)N1CC(=O)/C(=C(/O)c2ccc(OC(C)C)cc2OC)C1=O` (stereo unspecified), for which the inhibition at 10 µg/mL in the assay on Echinochloa crus-galli [9] amounted to 33%. On the same count and under the same terms, under `CCC(C)N1CC(=O)/C(=C(/O)c2cc(OC)c(OC)cc2OC)C1=O` (stereo unspecified) stands 18%; under `COc1ccc(C/C(O)=C2/C(=O)CN(C(C)C)C2=O)cc1`, 5%; under `CCCCOc1ccc(/C(O)=C2\C(=O)CN(C(C)CC)C2=O)cc1` (stereo unspecified), 28%. Same read-out and setting: with `CCCCCc1ccc(/C(O)=C2\C(=O)CN(C(C)C)C2=O)cc1` the figure was 6%; with `CCCCOc1ccc(/C(O)=C2\C(=O)CN(C(C)C)C2=O)cc1`, 21%.

Take `COc1cc(OC(C)C)ccc1/C(O)=C1\C(=O)C(C)N(C(C)C)C1=O` (stereo unspecified): the inhibition at 10 µg/mL in the assay with Echinochloa crus-galli [9] is 9%. For `O=C1CN(Cc2ccccc2)C(=O)/C1=C(\O)c1ccccc1`, the inhibition at 10 µg/mL in the assay on Echinochloa crus-galli [9] was determined as 2%. The inhibition at 93.75 g/ha in the assay on Echinochloa crus-galli [3] stood at 0%. Moreover, the inhibition at 187.5 g/ha with Echinochloa crus-galli [4] is 0%. The inhibition at 750 g/ha in the assay on Echinochloa crus-galli [5] was determined as 0%. Also, the inhibition at 375 g/ha in the assay with Echinochloa crus-galli [6] is 0%. With `COc1ccc(/C(O)=C2\C(=O)CN(C(C)(C)C)C2=O)cc1`, the inhibition at 10 µg/mL in the assay with Echinochloa crus-galli [9] was 10%. Moreover, in the assay on Echinochloa crus-galli [3], the inhibition at 93.75 g/ha was 0%. In the assay with Echinochloa crus-galli [4], the inhibition at 187.5 g/ha was found to be 0%. In addition, the inhibition at 750 g/ha in the assay on Echinochloa crus-galli [5] was determined as 14%. The inhibition at 375 g/ha in the assay with Echinochloa crus-galli [6] was 0%.

`CCC(C)N1CC(=O)/C(=C(/O)c2ccc(OC)c(OC)c2)C1=O` (stereo unspecified): the inhibition at 10 µg/mL in the assay with Echinochloa crus-galli [9] was 9%. The same measure, in the same setting: under `CCCCOc1cccc(/C(O)=C2\C(=O)CN(C(C)CC)C2=O)c1` (stereo unspecified) stands 32%; under `CCCCOc1cccc(/C(O)=C2\C(=O)CN(C(C)C)C2=O)c1`, 47%; under `COc1cc(OC(C)C)ccc1/C(O)=C1\C(=O)CN(C(C)C)C1=O`, 57%. Same read-out and setting: with `CC(C)Oc1cccc(/C(O)=C2\C(=O)CN(C(C)C)C2=O)c1` the figure was 9%; with `CC(C)N1CC(=O)/C(=C(/O)c2ccc(Cl)cc2)C1=O`, 25%; with `CC(C)N1CC(=O)/C(=C(/O)c2ccc(C(C)(C)C)cc2)C1=O`, 28%. With `COc1ccc(/C(O)=C2\C(=O)CN(C(C)C)C2=O)cc1`, the inhibition at 10 µg/mL in the assay with Echinochloa crus-galli [9] came to 80%.

As to `CCOc1ccc(C(=O)C2=C(O)N(C(C)C)CCC2=O)cc1`, the inhibition at 10 µg/mL with Echinochloa crus-galli [9] was 15%. Same read-out and setting: with `COc1ccc(/C(O)=C2\C(=O)CN(Cc3ccccc3)C2=O)cc1` the figure was 14%. On to `COc1ccc(/C([O-])=C2\C(=O)CN(C(C)C)C2=O)c(OC)c1.[Na+]`, for which the “inhibition (INH)” value turned out to be 100% in the assay on Digitaria sanguinalis [1]; 100% with Digitaria sanguinalis [2]; 73% with Echinochloa crus-galli [3]; 100% in the assay with Echinochloa crus-galli [4]; 100% in the assay on Echinochloa crus-galli [5]; 100% in the assay on Echinochloa crus-galli [6]. The “inhibition (INH)” value was 90% with Digitaria sanguinalis [7] and 10% in the assay with Digitaria sanguinalis [8]. For `CCC(C)N1CC(=O)/C(=C(/O)c2cc(C)cc(C)c2)C1=O` (stereo unspecified), the inhibition at 10 µg/mL in the assay on Echinochloa crus-galli [9] amounted to 9%. Same read-out and setting: under `CCC(C)N1CC(=O)/C(=C(/O)c2cccc(Oc3ccccc3)c2)C1=O` (stereo unspecified) stands 58%; under `CCCc1ccc(/C(O)=C2\C(=O)CN(C(C)CC)C2=O)cc1` (stereo unspecified), 18%. As to `Cc1cccc(/C(O)=C2\C(=O)CN(C)C2=O)c1`, in the assay with Echinochloa crus-galli [9], the inhibition at 10 µg/mL was determined as 25%.
